# Experimental data as given in patent publication US12178818B2, “Methods for treating immune thrombocytopenia by administering (R)-2-[3-[4-amino-3-(2-fluoro-4-phenoxy-phenyl)pyrazolo[3,4-d]pyrimidin-1-yl]piperidine-1-carbonyl]-4-methyl-4-[4-(oxetan-3-yl)piperazin-1-yl]pent-2-enenitrile” (Principia Biopharma Inc., priority 2019, dated 2024).
# Legend:
# [1] = test system: rat collagen-induced arthritis model; assay: rat collagen-induced arthritis model; assay type: in vivo
# [2] = in vivo
# Excerpt: TEAEs include all AEs that start on or after the first dose of study medication, or AEs that are present prior to the first dose of study medication, but their severity or relationship increases after the first dose of study medication up to and including the final study medication dosing date. Within each preferred term, patients are counted only once if they had more than one event reported during the dosing period.
# Non-hematologic DLT is considered any >Grade 3 non-hematologic toxicity per the NCI Common Terminology Criteria for Adverse Events (CTCAE), version 4.0, with the following exceptions: laboratory TEAEs that are asymptomatic and return to baseline or to Grade 1 within 7 days; fatigue; nausea, vomiting or diarrhea that return to baseline or Grade 1 within 7 days; and systemic reactions (such as, e.g., fever, headache) that return to baseline or Grade 1 within 7 days. Any toxicity that, at the discretion of the Investigator, is thought to warrant withholding the study drug for more than 7 days is also considered a DLT.
# The AE Collection Period begins at the time of the first screening/eligibility assessment and ends at the end of the study for each patient. […] An AE can therefore be any unfavorable and unintended sign (including an abnormal laboratory finding, for example), symptom, or disease temporally associated with the use of an investigational product, whether or not considered related to the product. Investigators are instructed to record all AEs encountered during the clinical study in detail from the date of participant consent throughout the study follow-up period. Pre-existing conditions that worsen during a study are reported as AEs.
# Investigators are instructed to report all clinical AEs encountered during the study. The intensity of AEs is graded based on the NCI CTCAE, Version 4.0 or higher. For any AEs not found in the CTCAE, a description of intensity grading can be found below: • Grade 1: Mild; asymptomatic or mild symptoms; clinical or diagnostic observations only; intervention not indicated. • Grade 2: Moderate; minimal, local or noninvasive intervention indicated; limiting age-appropriate instrumental activities of daily living. • Grade 3: Severe or medically significant but not immediately life-threatening; hospitalization or prolongation of hospitalization indicated; disabling; limiting self-care activities of daily living.
# [3] = test system: human B cell activation; assay: human B cell activation in vitro; assay type: cell-based
# [4] = test system: rat antibody-mediated arthus model; assay: rat antibody-mediated arthus model; assay type: in vivo
# [5] = clinical; settings: human, in vivo
# [6] = test system: Fc receptor signaling; assay: antibody mediated activation of immune cells in vitro; assay type: cell-based
# [7] = test system: CYP3A
# [8] = Phase 1 study, healthy volunteers; cited from earlier work
# [9] = test system: mouse model of anti-platelet driven immune thrombocytopenia; assay: mouse model of immune thrombocytopenia, platelet count
# [10] = test system: 251-kinase panel; assay: 251-kinase panel, kinase selectivity; assay type: biochemical; settings: 1 μM
# [11] = test system: blood platelets; assay: ex vivo platelet aggregation, standard panel of platelet agonists; assay type: cell-based, human; settings: for platelet aggregation: ≤1 μM, standard panel of platelet agonists
# [12] = target: P-gp (Homo sapiens, UniProt P08183); settings: not told
# Sequence of P-gp (P08183 whole entry): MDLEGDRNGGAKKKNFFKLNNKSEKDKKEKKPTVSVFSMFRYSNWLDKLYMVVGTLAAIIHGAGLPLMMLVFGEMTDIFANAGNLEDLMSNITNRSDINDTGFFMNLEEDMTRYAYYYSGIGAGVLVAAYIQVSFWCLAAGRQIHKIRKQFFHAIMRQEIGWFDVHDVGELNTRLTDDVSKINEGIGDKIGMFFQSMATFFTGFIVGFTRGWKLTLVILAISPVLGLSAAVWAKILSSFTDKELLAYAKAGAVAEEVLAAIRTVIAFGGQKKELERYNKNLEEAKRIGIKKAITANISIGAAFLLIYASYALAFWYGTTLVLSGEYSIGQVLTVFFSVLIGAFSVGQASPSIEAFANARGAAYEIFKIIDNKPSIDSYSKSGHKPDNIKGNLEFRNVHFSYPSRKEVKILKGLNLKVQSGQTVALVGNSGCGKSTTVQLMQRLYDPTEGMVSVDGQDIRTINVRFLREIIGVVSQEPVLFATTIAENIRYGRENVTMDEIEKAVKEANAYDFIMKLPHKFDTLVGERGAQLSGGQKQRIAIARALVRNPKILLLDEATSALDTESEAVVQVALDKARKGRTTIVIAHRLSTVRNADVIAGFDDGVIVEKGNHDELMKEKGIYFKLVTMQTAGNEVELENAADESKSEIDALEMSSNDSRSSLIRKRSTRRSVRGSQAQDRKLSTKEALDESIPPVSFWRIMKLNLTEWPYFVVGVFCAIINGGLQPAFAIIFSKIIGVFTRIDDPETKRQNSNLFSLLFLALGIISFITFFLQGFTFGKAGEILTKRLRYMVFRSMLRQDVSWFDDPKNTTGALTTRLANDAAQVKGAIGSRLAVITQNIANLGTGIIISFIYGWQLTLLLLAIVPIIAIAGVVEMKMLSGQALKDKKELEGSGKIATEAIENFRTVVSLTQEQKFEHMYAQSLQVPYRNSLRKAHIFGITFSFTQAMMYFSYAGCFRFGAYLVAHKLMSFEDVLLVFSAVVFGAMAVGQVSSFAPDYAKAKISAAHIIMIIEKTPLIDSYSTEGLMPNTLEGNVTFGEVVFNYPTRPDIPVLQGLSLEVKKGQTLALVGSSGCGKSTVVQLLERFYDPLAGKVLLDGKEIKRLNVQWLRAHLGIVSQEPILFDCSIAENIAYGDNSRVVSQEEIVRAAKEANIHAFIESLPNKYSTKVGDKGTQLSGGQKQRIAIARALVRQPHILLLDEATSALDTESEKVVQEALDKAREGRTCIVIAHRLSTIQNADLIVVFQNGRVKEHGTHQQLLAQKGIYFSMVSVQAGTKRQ
# [13] = test system: spontaneous canine pemphigus foliaceus; assay: spontaneous canine pemphigus foliaceus; assay type: in vivo
# [14] = test system: pemphigus patients; assay: human pemphigus (PV; Study PRN1008-005)
# [15] = in vivo; remark: listed apart in the source
compound,measurement,setting,value
"CC(C)(C=C(C#N)C(=O)N1CCC[C@@H](n2nc(-c3ccc(Oc4ccccc4)cc3F)c3c(N)ncnc32)C1)N1CCN(C2COC2)CC1 [PRN1008, (R)-2-[3-[4-amino-3-(2-fluoro-4-phenoxy-phenyl)pyrazolo[3,4-d]pyrimidin-1-yl]piperidine-1-carbonyl]-4-methyl-4-[4-(oxetan-3-yl)piperazin-1-yl]pent-2-enenitrile]",anti-inflammatory effects,[1],rapid and significant anti-inflammatory effects
same,"All related TEAEs, Grade 1",[2]; human,10 (21) n (%)
same,"All related TEAEs, Grade 2",[2]; human,11 (23) n (%)
same,"Related TEAEs, Abdominal distension, Grade 1/2",[2]; human,3 (10) n (%)
same,"Related TEAEs, All TEAEs, Grade 1/2",[2]; human,11 (35) n (%)
same,"Related TEAEs, Diarrhea, Grade 1",[2]; human,14 (30) n (%)
same,"Related TEAEs, Diarrhea, Grade 1/2",[2]; human,7 (23) n (%)
same,"Related TEAEs, Diarrhea, Grade 2",[2]; human,2 (4) n (%)
same,"Related TEAEs, Fatigue, Grade 1",[2]; human,5 (11) n (%)
same,"Related TEAEs, Fatigue, Grade 1/2",[2]; human,3 (10) n (%)
same,"Related TEAEs, Fatigue, Grade 2",[2]; human,1 (2) n (%)
same,"Related TEAEs, Nausea, Grade 1",[2]; human,12 (26) n (%)
same,"Related TEAEs, Nausea, Grade 1/2",[2]; human,8 (26) n (%)
same,"Related TEAEs, Nausea, Grade 2",[2]; human,1 (2) n (%)
same,dose-limiting toxicities,[2],No dose-limiting toxicities were observed
same,related serious adverse events,[2],No related serious adverse events were reported
same,thrombotic events,[2],no thrombotic events
same,treatment related bleeding or thrombotic events,[2],no reported treatment related bleeding or thrombotic events
same,human B cell activation,[3],profoundly inhibits
same,anti-inflammatory effects,[4],rapid and significant anti-inflammatory effects
same,Tmax,[5],~2.5 h
same,half-life,[5]; po,3 to 4 h
same,"antibody (IgG, IgE) mediated activation of immune cells via Fc receptor signaling",[6],blocks
same,CYP3A inhibitor,[7],inhibitor
same,CYP3A substrate,[7],substrate
same,most commonly reported adverse events,[8],"gastrointestinal adverse events, including nausea/vomiting and diarrhea"
same,serious adverse events or deaths,[8],No serious adverse events or deaths were reported
same,platelet decrease from baseline,"[9]; 10 mg/kg/d, anti-platelet challenge (vehicle 83.1%)",71.9%
same,platelet-loss (consumption),[9]; mouse model of immune thrombocytopenia,significant dose dependent reduction
same,number of kinases with >90% inhibition,[10],6 kinases
same,platelet aggregation,[11]; blood of ITP patients,no effect
same,platelet aggregation,[11]; blood of healthy volunteers,no effect
same,collagen-induced platelet aggregation,"[11]; normal or ITP patient platelet samples, clinically relevant concentrations",did not impact
same,P-gp substrate,[12],substrate
same,anti-inflammatory effects,[13],rapid and significant anti-inflammatory effects
same,onset of clinical effect in most pemphigus patients,[14]; Study PRN1008-005,≤ 4 weeks
same,anti-inflammatory effects,[14]; human pemphigus vulgaris (PV),rapid and significant anti-inflammatory effects
same,impact of food on extent of absorption,[15],does not appear to impact
